Legend:
Assay type in all cases: in vivo, human
[1] = Safety and tolerability, treatment-emergent adverse events, SAD part
Procedure: (§1) Eligible subjects were randomized to receive either taniborbactam or placebo in a 3:1 ratio within dose cohorts in both the SAD and MAD parts of the study. Each dose cohort in the SAD part of the study enrolled 8 subjects, and each dose cohort in the MAD part of the study enrolled 12 subjects. In the SAD part, subjects received 62.5, 125, 250, 500, 1,000, or 1,500 mg taniborbactam as a 2-h intravenous (i.v.) infusion. In the MAD part, subjects received 2-h intravenous i.v. infusions of 250, 500, or 750 mg taniborbactam q8h over 10 days, ending after a final morning dose on day 10 (total of 28 doses).
Safety was assessed based on the occurrence of adverse events and evaluation of laboratory tests (chemistry, hematology, urinalysis), physical examination, vital signs, and 12-lead electrocardiograms (ECGs) that were performed throughout the study. Safety was followed through 7 days postdose in the SAD part and followed through 7 days post-last dose in the MAD part.

[2] = Cardiodynamic ECG assessment and concentration-QT effect model (SAD part)
Procedure: ECG and pharmacokinetic data from the SAD part of the study were used to construct a concentration-QT effect model to assess potential QT effects. The primary cardiodynamic safety parameter was the corrected QT interval by Fredericia (QTcF). The potential impact of taniborbactam on other ECG intervals and T-wave morphology was also assessed. The ECG monitoring in the study was intensive, with continuous Holter 12-lead ECGs recorded on day 1. ECG data used in the modeling consisted of extracted replicates at time points that matched the pharmacokinetic data. The concentration-QT effect model included the entire single-dose range of between 62.5 mg and 1,500 mg taniborbactam.

[3] = Multiple-ascending-dose (MAD) pharmacokinetics in plasma and urine, healthy adult volunteers; conditions: for AUCtau / Cmax / CLR,SS / CLSS / Vz / t1/2 / Ae / Fe: mean (%CV); for Tmax: median (range); for t1/2: terminal elimination; for Ae / Fe: urine through the dosing interval (8 h); for AUCtau mean ratio, last dose compared to first dose: day 10 vs day 1
Procedure: as §1
Blood samples for assay of taniborbactam in plasma were collected predose and at 1, 2, 2.25, 2.5, 2.75, 3, 4, 6, 8, 12, 26, and 50 h after the start of drug infusion in the SAD part. For the MAD part, blood samples to determine taniborbactam plasma concentrations were collected predose and at 1, 2, 2.25, 2.5, 2.75, 3, 4, 6, and 8 h following the first dose (day 1) and predose and at 1, 2, 2.25, 2.5, 2.75, 3, 4, 6, 10, 14, and 26 h following the last dose (day 10). Urine was collected predose and at intervals of 0 to 4, 4 to 8, 8 to 24, and 24 to 48 h after the start of the infusion in the SAD part for the higher-dose groups (500 to 1,500 mg taniborbactam). For the MAD part, urine was collected through the dosing interval following the last dose using collection intervals of 0 to 4 and 4 to 8 h after the start of the infusion. At the end of each urine collection interval, the volume of each urine collection was recorded and a sample was taken.
Plasma and urine samples were assayed for taniborbactam and screened for possible metabolites. Human dipotassium ethylenediaminetetraacetic acid (K2EDTA) plasma samples were processed using protein precipitation and assayed using ultra-high-performance liquid chromatography with tandem mass spectrometric detection (LC-MS/MS). Both low- and high-range methods were developed and validated for plasma samples, with calibration ranges of 5 to 5,000 ng/ml and 100 to 100,000 ng/ml, respectively. Acidified urine samples were processed using solid-phase extraction and assayed using a validated LC-MS/MS method with a calibration range of 5.0 to 5,000 ng/ml. For both matrices, separation was accomplished using a Waters Acquity HSS T3 column (Milford, MA) at 50°C, and gradient elution using 10 mM ammonium formate with 1% formic acid as mobile phase A and 50:50:1 acetonitrile:methanol:formic acid (vol/vol/vol) as mobile phase B. A triple quadrupole mass spectrometer (API Triple Quad 5500; AB Sciex, Framingham, MA) equipped with a turbo-ion spray set was used for detection in positive ion mode, and quantification was based on multiple reaction monitoring. The internal standard used in the assays was D4-taniborbactam.
Individual subject plasma and urine taniborbactam pharmacokinetic parameters were evaluated using noncompartmental analysis methods (Phoenix WinNonlin, Certara, Princeton, NJ). Single-dose pharmacokinetic parameters were determined in the SAD part, and both single-dose (day 1) and multiple-dose (day 10) pharmacokinetic parameters were determined in the MAD part. Estimated pharmacokinetic parameters included Cmax, time to Cmax (Tmax), AUCtau, AUC0–inf, t1/2, CL, VZ, Ae, Fe, and CLR. The actual sample times were used to calculate the pharmacokinetic parameters. Calculation of λZ was based on best fit of concentrations in the observed terminal elimination phase of a profile, and statistical inclusion of any parameter based on λZ required the goodness of fit statistic (R^2) to be greater than 0.8. Pharmacokinetic data were summarized using descriptive statistics by treatment. Dose proportionality based on Cmax and AUC was determined using linear regression to calculate the slope and 90% CI and observing whether a slope of 1 was included in the confidence interval. The dose proportionality analysis included subject body weight as a covariate in the analysis.

## NCCN[C@H]1CC[C@H](CC(=O)N[C@H]2Cc3cccc(C(=O)O)c3OB2O)CC1 [Taniborbactam]
[1]; SAD and MAD parts
  deaths, serious adverse events, adverse events leading to discontinuation: no deaths, serious adverse events, or adverse events leading to discontinuation
[1]; in vivo
  Adverse event: Abdominal pain: 1 (2.8) No. (%)
  Adverse event: Arthralgia: 1 (2.8) No. (%)
  Adverse event: Back pain: 1 (2.8) No. (%)
  Adverse event: Headache: 1 (2.8) No. (%)
  Adverse event: Increased blood CPK: 1 (2.8) No. (%)
  Adverse event: Increased hepatic enzyme: 1 (2.8) No. (%)
  Adverse event: Migraine: 1 (2.8) No. (%)
  Adverse event: Nausea: 1 (2.8) No. (%)
  Adverse event: Pharyngitis: 0 (0.0) No. (%)
  Adverse event: Viral URI: 1 (2.8) No. (%)
  Adverse event: Vomiting: 1 (2.8) No. (%)
  changes in vital signs, clinical laboratory evaluations, ECGs, physical examinations: no clinically significant changes
  subjects with adverse events considered by the investigator to be related to treatment: 1 subject
[2]; plasma concentrations up to 80,000 ng/ml (Cmax of 1,500 mg dose)
  QT effect (ΔΔQTcF) from exposure-response analysis: ≤ 10 ms
[2]; single doses 62.5 to 1,500 mg
  effect on heart rate, T-wave morphology, PR and QRS interval: did not have an effect
[3]; 250 mg q8h, day 1
  AUCtau: 34,447 (17.2) h · ng/ml
  Cmax: 10,544 (18.3) ng/ml
  Tmax: 2.0 (2.0, 2.1) h
[3]; 250 mg q8h, day 10
  AUCtau: 41,563 (15.1) h · ng/ml
  CLR,SS: 5.2 (17.3) liters/h
  CLSS: 6.2 (15.9) liters/h
  Cmax: 11,188 (16.5) ng/ml
  Vz: 36.0 (28.3) liters
  Tmax: 2.0 (2.0, 2.1) h
  t1/2: 4.1 (29.3) h
  Ae: 211.0 (11.8) mg
  Fe: 84.4 (11.8) %
[3]; 250 mg q8h, day 10, listed as taniborbactam
  Fe: 84.4%
[3]; 250 mg q8h
  AUCtau mean ratio, last dose compared to first dose: 1.21
[3]; 500 mg q8h, day 1
  AUCtau: 81,890 (14.7) h · ng/ml
  Cmax: 25,778 (15.2) ng/ml
  Tmax: 2.0 (2.0, 2.1) h
[3]; 500 mg q8h, day 10
  AUCtau: 89,103 (13.8) h · ng/ml
  CLR,SS: 5.3 (14.2) liters/h
  CLSS: 5.7 (12.6) liters/h
  Cmax: 26,533 (13.0) ng/ml
  Vz: 39.8 (14.3) liters
  Tmax: 2.0 (2.0, 2.3) h
  t1/2: 4.9 (13.3) h
  Ae: 462.2 (10.2) mg
  Fe: 92.4 (10.2) %
[3]; 500 mg q8h, day 10, listed as taniborbactam
  Fe: 92.4%
[3]; 500 mg q8h
  AUCtau mean ratio, last dose compared to first dose: 1.09
[3]; 750 mg q8h, day 1
  AUCtau: 119,140 (18.0) h · ng/ml
  Cmax: 39,122 (23.7) ng/ml
  Tmax: 2.0 (2.0, 2.3) h
[3]; 750 mg q8h, day 10
  AUCtau: 139,518 (21.6) h · ng/ml
  CLR,SS: 5.2 (28.6) liters/h
  CLSS: 5.6 (21.1) liters/h
  Cmax: 38,778 (18.2) ng/ml
  Vz: 37.4 (19.9) liters
  Tmax: 2.0 (2.0, 2.3) h
  t1/2: 4.7 (15.4) h
  Ae: 692.2 (21.7) mg
  Fe: 92.3 (21.7) %
[3]; 750 mg q8h, day 10, listed as taniborbactam
  Fe: 92.3%
[3]; 750 mg q8h
  AUCtau mean ratio, last dose compared to first dose: 1.17
[3]; at steady state
  administered dose recovered in urine as intact drug: approximately 90%

Reference: paper PMC8522722, “Safety and Pharmacokinetics in Human Volunteers of Taniborbactam (VNRX-5133), a Novel Intravenous β-Lactamase Inhibitor” (Antimicrobial Agents and Chemotherapy, 2021)
